Results taken from US10906876B2, “Tetrahydroisoquinolines as selective NADPH oxidase 2 inhibitors” (University of Pittsburgh—Of the Commonwealth System of …, priority 2013, dated 2021).

Molecular target: T1, Nox2 (Homo sapiens, UniProt P04839)
T1 construct: expressed in transfected cells
T1 sequence (P04839 2-570 limits assumed): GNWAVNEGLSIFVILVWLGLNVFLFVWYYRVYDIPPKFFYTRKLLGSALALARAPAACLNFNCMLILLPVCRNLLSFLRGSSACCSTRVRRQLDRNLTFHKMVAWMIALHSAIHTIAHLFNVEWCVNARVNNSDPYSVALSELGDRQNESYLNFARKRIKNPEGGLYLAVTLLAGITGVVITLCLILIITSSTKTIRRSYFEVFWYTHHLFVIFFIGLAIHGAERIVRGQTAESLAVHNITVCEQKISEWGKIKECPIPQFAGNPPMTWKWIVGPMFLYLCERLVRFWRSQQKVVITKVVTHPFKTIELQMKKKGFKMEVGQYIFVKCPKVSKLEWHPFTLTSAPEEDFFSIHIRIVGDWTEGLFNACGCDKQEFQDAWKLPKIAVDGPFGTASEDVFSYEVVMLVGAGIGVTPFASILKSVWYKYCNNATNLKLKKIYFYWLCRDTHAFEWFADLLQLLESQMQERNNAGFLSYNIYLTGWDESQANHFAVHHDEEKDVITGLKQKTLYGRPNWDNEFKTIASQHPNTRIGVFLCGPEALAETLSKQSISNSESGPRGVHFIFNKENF
Assay: ROS production of transiently Nox2-transfected Cos cells treated with PMA
Format: cell-based
Conditions: 10 μM compound
Description: Cell transfection was carried out using Lipofectamine LTX and Plus reagent (Invitrogen, Carlsbad, Calif., USA), according to the manufacturer's instructions. COS-22 cells were transiently co-transfected with pcDNA 3.1-hNox1, pCMVsport 6-hNOXA1 and pcDNA3.1-hNoxO1 (COS-Nox1/NOXO1/NOXA1 cells) or with pcDNA3.1/Hygro-hNox4 (COS-Nox4 cells). Cells were used 24 hr after transfection. Adherent cells were harvested by incubating with 0.05% trypsin/EDTA for 5 min at 37° C. Following addition of DMEM/10% FBS to neutralize the trypsin, the cells were pelleted by centrifugation at 1100×g for 5 min at 4° C. and used for the experiments.
Since p47^phox activation is important not only for Nox2 activity but also for Nox1 hybrid system present mainly in human endothelial cells, the effect of compounds 11g and 11h on ROS production of transiently Nox2-transfected (FIG. 13) or Nox1 hybrid system-transfected Cos cells (FIG. 14) treated with phorbol ester (PMA) was evaluated.

C=C(C)CC1C2c3c(Br)cccc3C(CC2(C)C)N1CCCCC (racemic) [Compound 11g, (±)-(1S,4R,9S)-5-Bromo-3,3-dimethyl-9-(2-methylallyl-10-pentyl-1,2,3,4-tetrahydro-1,4-(epiminomethano)naphthalene]
PMA-stimulated ROS production, Nox2-transfected Cos cells: inhibited
